One assay has as its system A549. Kind of assay: Antiproliferative activity against human A549 cells expressing EGFR assessed as reduction in cell growth incubated for 48 hrs by MTT assay. It is filed as functional, cell-based. The conditions noted are these: A549, 48 h. (In general: Tetrazolium assays rely on reduction of a dye to a coloured formazan, in cell work by metabolically active cells.)

The subject of another assay is HUVEC. Kind of assay: Antiproliferative activity against human HUVEC cells expressing VEGFR2 assessed as reduction in cell growth incubated for 48 hrs by MTT assay. It is filed as functional, cell-based.
Assay [1] has as its target Epidermal growth factor receptor (Homo sapiens) (UniProt P00533). Kind of assay: Inhibition of EGFR (unknown origin) using Poly (Glu, Tyr) 4:1 as substrate at 1 uM preincubated with substrate followed by enzyme challenge for 1 hr by ELISA relative to control. (ELISA stands for enzyme-linked immunosorbent assay.)
For another assay, the system named is HepG2. The experiment in a line: Antiproliferative activity against human HepG2 cells expressing VEGFR2 assessed as reduction in cell growth incubated for 48 hrs by MTT assay. It is filed as functional, cell-based. The note with it: HepG2, 48 h.
Assay [2] concerns the target T1, Vascular endothelial growth factor receptor 2 (Homo sapiens, UniProt P35968). Kind of assay: Inhibition of VEGFR2 (unknown origin) using Poly (Glu, Tyr) 4:1 as substrate preincubated with substrate followed by enzyme challenge for 1 hr by ELISA.
Another assay deals with MDA-MB-231. The experiment in a line: Antiproliferative activity against human MDA-MB-231 cells expressing EGFR assessed as reduction in cell growth incubated for 48 hrs by MTT assay. It is filed as functional, cell-based. The note with it: MDA-MB-231, 48 h.
In assay [3] the target is T1, Vascular endothelial growth factor receptor 2. The conditions noted are these: at 1 µM.
Description: Inhibition of VEGFR2 (unknown origin) using Poly (Glu, Tyr) 4:1 as substrate at 1 uM preincubated with substrate followed by enzyme challenge for 1 hr by ELISA relative to control

The source of these data is ChEMBL document CHEMBL4396905, “Design, synthesis and in vitro evaluation of 6-amide-2-aryl benzoxazole/benzimidazole derivatives against tumor cells by inhibiting VEGFR-2 kinase” (Eur J Med Chem, 2019).

By IC50 is commonly meant the concentration needed to halve the response being measured. For orientation: inhibition means the drop in the measured response relative to a control, in per cent.

Molecules are shown by their SMILES. Where only a bound is given, the exact number is not on record here.

T1 sequence (P35968 whole entry): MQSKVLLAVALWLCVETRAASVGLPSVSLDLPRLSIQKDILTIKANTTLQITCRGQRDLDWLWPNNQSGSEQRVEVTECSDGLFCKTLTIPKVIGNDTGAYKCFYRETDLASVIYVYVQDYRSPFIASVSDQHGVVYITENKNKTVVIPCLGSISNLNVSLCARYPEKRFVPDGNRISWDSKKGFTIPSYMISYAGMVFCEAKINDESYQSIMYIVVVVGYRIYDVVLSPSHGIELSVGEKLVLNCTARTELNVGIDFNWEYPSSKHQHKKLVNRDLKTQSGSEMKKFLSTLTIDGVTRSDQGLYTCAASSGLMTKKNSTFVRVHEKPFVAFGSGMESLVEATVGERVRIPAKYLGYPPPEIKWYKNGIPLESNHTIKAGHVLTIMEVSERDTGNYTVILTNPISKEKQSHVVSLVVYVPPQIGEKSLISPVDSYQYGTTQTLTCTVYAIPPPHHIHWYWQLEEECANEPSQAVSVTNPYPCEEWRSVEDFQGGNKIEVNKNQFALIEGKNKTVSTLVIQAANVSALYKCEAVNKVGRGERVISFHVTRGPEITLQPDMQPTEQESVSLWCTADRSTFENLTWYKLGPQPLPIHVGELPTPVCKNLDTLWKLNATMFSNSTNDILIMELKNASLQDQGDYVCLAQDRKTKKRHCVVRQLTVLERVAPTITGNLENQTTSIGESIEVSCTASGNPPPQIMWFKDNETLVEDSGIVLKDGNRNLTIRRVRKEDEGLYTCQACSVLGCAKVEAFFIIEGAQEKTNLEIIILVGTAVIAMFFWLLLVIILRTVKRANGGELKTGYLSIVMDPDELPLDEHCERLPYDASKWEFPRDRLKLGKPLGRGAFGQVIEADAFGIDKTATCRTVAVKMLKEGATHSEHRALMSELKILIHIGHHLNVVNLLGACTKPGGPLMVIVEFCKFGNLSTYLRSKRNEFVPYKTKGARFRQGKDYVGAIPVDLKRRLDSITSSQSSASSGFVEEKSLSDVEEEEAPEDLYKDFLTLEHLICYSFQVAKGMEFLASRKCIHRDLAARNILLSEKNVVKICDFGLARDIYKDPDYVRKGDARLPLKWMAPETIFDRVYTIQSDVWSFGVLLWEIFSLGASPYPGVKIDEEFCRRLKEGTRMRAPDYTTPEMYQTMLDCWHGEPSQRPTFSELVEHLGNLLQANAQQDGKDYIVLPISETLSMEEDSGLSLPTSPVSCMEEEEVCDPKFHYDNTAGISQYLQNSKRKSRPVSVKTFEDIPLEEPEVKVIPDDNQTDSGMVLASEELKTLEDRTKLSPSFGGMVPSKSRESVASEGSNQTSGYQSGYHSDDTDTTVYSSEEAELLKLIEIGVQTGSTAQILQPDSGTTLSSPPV
Chain of Epidermal growth factor receptor (Homo sapiens) (P00533 whole entry): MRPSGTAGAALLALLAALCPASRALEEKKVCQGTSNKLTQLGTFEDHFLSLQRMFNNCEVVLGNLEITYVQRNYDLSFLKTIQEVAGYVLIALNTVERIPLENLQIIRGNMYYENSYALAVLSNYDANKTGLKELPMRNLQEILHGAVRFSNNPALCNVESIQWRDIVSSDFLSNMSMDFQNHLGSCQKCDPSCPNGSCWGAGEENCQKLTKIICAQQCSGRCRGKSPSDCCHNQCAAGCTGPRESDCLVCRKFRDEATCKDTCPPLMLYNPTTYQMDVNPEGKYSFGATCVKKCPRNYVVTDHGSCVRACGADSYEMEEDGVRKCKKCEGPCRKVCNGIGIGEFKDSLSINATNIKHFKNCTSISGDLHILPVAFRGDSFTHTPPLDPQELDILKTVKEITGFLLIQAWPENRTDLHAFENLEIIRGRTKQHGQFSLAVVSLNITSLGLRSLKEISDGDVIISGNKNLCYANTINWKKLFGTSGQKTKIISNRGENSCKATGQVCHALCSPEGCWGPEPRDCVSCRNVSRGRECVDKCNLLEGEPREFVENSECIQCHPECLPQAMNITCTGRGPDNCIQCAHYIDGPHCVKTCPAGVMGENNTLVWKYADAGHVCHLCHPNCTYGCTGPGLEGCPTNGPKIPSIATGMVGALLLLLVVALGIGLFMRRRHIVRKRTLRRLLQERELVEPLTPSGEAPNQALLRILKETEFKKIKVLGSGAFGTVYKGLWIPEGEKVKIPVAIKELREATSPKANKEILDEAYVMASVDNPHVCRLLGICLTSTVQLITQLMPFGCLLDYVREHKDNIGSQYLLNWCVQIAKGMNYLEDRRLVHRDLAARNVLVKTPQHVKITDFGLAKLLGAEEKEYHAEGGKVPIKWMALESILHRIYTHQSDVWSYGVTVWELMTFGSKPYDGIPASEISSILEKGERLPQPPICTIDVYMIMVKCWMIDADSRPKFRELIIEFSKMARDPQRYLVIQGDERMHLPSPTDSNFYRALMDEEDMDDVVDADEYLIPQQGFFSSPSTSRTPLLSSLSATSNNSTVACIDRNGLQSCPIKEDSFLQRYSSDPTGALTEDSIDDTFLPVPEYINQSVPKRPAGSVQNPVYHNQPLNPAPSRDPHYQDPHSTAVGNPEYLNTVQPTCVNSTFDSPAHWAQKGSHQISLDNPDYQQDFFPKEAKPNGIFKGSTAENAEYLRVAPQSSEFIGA

`COc1ccc(CC(=O)Nc2ccc3oc(-c4ccc(Cl)cc4)nc3c2)cc1`: the IC50 with A549 amounted to 74.4 µM; with HUVEC, 5.25 µM; in the assay with HepG2, 8.22 µM; in assay [2], 0.0973 µM; with MDA-MB-231 it was 74.3 µM. The inhibition in assay [1] came out at 49.4%; in assay [3], 102%.
In the case of `Cc1ccc(CC(=O)Nc2ccc3[nH]c(-c4ccc(Cl)cc4)nc3c2)cc1`, the IC50 in the assay on A549 amounted to 59.6 µM; in the assay with HUVEC it was 3.21 µM; in the assay with HepG2, 5.56 µM; in assay [2] it was 0.0737 µM; with MDA-MB-231, 63.2 µM. In addition, the inhibition was found to be 48.3% in assay [1] and 100% in assay [3].
As for `COc1cc(CC(=O)Nc2ccc3oc(-c4ccccc4)nc3c2)cc(OC)c1OC`, the IC50 is 93.4 µM in the assay on A549; 19.2 µM in the assay on HUVEC; 26.4 µM in the assay on HepG2; 0.357 µM in assay [2]; 79.5 µM with MDA-MB-231. In addition, the inhibition in assay [1] turned out to be 47.3%; in assay [3], 89.3%.
As to `Cc1ccc(CC(=O)Nc2ccc3oc(-c4ccccc4Cl)nc3c2)cc1`, the IC50 was found to be 64.4 µM with A549; 16.3 µM in the assay with HUVEC; 36.3 µM in the assay with HepG2; 0.489 µM in assay [2]; 47.7 µM in the assay on MDA-MB-231. Besides, the figures for the inhibition in assay [1] and in assay [3] were 47.5% and 93.5%, respectively.
On to `O=C(Nc1ccc2[nH]c(-c3ccc(Cl)cc3)nc2c1)c1ccc(Cl)c(Br)c1`, for which the IC50 in the assay on A549 was 30.4 µM; in the assay with HUVEC, 7.61 µM; in the assay on HepG2, 12 µM; in assay [2], 0.542 µM; with MDA-MB-231 it was 74.4 µM. Further, the values for the inhibition in assay [1] and in assay [3] were 40.8% and 93.8%, respectively.
With `Cc1ccc(CC(=O)Nc2ccc3oc(-c4ccccc4Br)nc3c2)cc1`, the IC50 in the assay on A549 was 40.2 µM; with HUVEC, 23.6 µM; with HepG2, 33.1 µM; in assay [2], 0.842 µM; in the assay with MDA-MB-231 it was 74.3 µM. Also, the results for the inhibition in assay [1] and in assay [3] were 39.1% and 89.1%, respectively.
Consider `COc1ccc(CC(=O)Nc2ccc3oc(-c4ccccc4)nc3c2)cc1OC`, for which the IC50 was found to be 89.2 µM in the assay on A549; 18.4 µM in the assay with HUVEC; 16.4 µM in the assay on HepG2; 0.579 µM in assay [2]; 94.3 µM in the assay on MDA-MB-231. Besides, the figures for the inhibition in assay [1] and in assay [3] were 37.2% and 83.5%, respectively.
Turning to `COc1ccc(CC(=O)Nc2ccc3oc(-c4ccccc4Cl)nc3c2)cc1`, the IC50 is over 100 µM with A549; 15.4 µM with HUVEC; 30.8 µM in the assay on HepG2; 0.444 µM in assay [2]; 76.2 µM with MDA-MB-231. The inhibition in assay [1] turned out to be 43.8%; in assay [3], 90.1%.
As for `COc1cc(CC(=O)Nc2ccc3[nH]c(-c4ccc(Cl)cc4)nc3c2)cc(OC)c1OC`, the IC50 in the assay on A549 worked out at 36.8 µM; in the assay on HUVEC, 7.32 µM; with HepG2, 3.43 µM; in assay [2], 0.419 µM; in the assay on MDA-MB-231 it was 75.9 µM. The figures for the inhibition in assay [1] and in assay [3] were 43.1% and 90.2%, respectively.
In the case of `COc1ccc(CC(=O)Nc2ccc3oc(-c4ccccc4F)nc3c2)cc1`, the IC50 in the assay on A549 is over 100 µM; in the assay on HUVEC, 14.2 µM; in the assay on HepG2 it was 37.3 µM; in assay [2] it was 0.166 µM; with MDA-MB-231, over 100 µM. Further, the results for the inhibition in assay [1] and in assay [3] were 42.8% and 94.6%, respectively.
As to `COc1ccc(CC(=O)Nc2ccc3oc(-c4ccc(Cl)cc4)nc3c2)cc1OC`, the IC50 is over 100 µM in the assay on A549; 11.4 µM in the assay on HUVEC; 24.3 µM with HepG2; 0.386 µM in assay [2]; over 100 µM in the assay with MDA-MB-231. Further, the inhibition in assay [1] was found to be 52.2%; in assay [3] it was 92.6%.
For the compound `O=C(Nc1ccc2[nH]c(-c3ccc(Cl)cc3)nc2c1)c1ccc(Cl)c(F)c1`, the IC50 in the assay on A549 was 36.6 µM; in the assay with HUVEC, 13.4 µM; in the assay on HepG2, 26.3 µM; in assay [2] it was 0.988 µM; with MDA-MB-231 it was 69.4 µM. Further, the inhibition in assay [1] was determined as 45.2%; in assay [3], 87.5%.
On to `O=C(Nc1ccc2oc(-c3ccc(Cl)cc3)nc2c1)c1ccc(Cl)c(Br)c1`, for which the IC50 is over 100 µM with A549; 13.4 µM in the assay on HUVEC; 37 µM in the assay with HepG2; 0.338 µM in assay [2]; over 100 µM with MDA-MB-231. Besides, the inhibition in assay [1] was found to be 44.1%; in assay [3], 90.2%.
As to `COc1ccc(CC(=O)Nc2ccc3[nH]c(-c4ccc(OC)cc4)nc3c2)cc1`, the IC50 in the assay on A549 is 76.2 µM; in the assay with HUVEC, 30.6 µM; in the assay on HepG2, 61.4 µM; with MDA-MB-231, over 100 µM. Moreover, the inhibition in assay [1] amounted to 27.8%; in assay [3], 68.3%.
`O=C(Nc1ccc2oc(-c3ccccc3)nc2c1)c1ccc(Cl)c(F)c1`: the 50% inhibitory concentration (IC50) was over 100 µM with A549, 27.4 µM in the assay on HUVEC, 91.9 µM in the assay on HepG2 and over 100 µM in the assay with MDA-MB-231. In addition, the inhibition in assay [1] worked out at 13.9%; in assay [3] it was 47.8%.
As to `O=C(Nc1ccc2oc(-c3ccccc3Cl)nc2c1)c1ccc(Cl)c(F)c1`, the IC50 with A549 was 62.9 µM; in the assay with HUVEC, 36.5 µM; in the assay on HepG2, 17 µM; in the assay on MDA-MB-231, over 100 µM. Further, the inhibition in assay [1] came to 28.5%; in assay [3], 71.3%.
Regarding `COc1cc(CC(=O)Nc2ccc3oc(-c4ccc(Cl)cc4)nc3c2)cc(OC)c1OC`, the IC50 in the assay on A549 was over 100 µM; in the assay with HUVEC, 13.3 µM; with HepG2, 28.2 µM; in assay [2], 0.259 µM; with MDA-MB-231 it was over 100 µM. Moreover, the values for the inhibition in assay [1] and in assay [3] were 58.9% and 91.5%, respectively.
Take `COc1ccc(CC(=O)Nc2ccc3oc(-c4ccc(Cl)c(Br)c4)nc3c2)cc1`: the IC50 in the assay with A549 is over 100 µM; in the assay with HUVEC it was 38.3 µM; in the assay with HepG2, over 100 µM; in the assay with MDA-MB-231 it was over 100 µM. The inhibition in assay [1] is 36.3%; in assay [3], 79.9%.
As to `O=C(Nc1ccc2oc(-c3ccc(Cl)c(Br)c3)nc2c1)c1ccc(Cl)c(Br)c1`, the IC50 with A549 is 93.3 µM; with HUVEC, 53.9 µM; with HepG2, 71.6 µM; in the assay on MDA-MB-231 it was over 100 µM. Also, the inhibition in assay [1] stood at 19.5%; in assay [3], 62.8%.
As to `Cc1ccc(CC(=O)Nc2ccc3oc(-c4ccccc4F)nc3c2)cc1`, the IC50 worked out at 83.3 µM with A549; 12.8 µM in the assay with HUVEC; 39.2 µM in the assay on HepG2; 0.233 µM in assay [2]; 93.7 µM with MDA-MB-231. In addition, the inhibition in assay [1] came to 39.5%; in assay [3], 97.3%.
For `COc1ccc(CC(=O)Nc2ccc3oc(-c4ccc(Cl)c(Br)c4)nc3c2)cc1OC`, the IC50 with A549 is over 100 µM; in the assay on HUVEC, 46.3 µM; in the assay on HepG2, 83.8 µM; in the assay on MDA-MB-231 it was over 100 µM. Further, the inhibition was determined as 20.4% in assay [1] and 65% in assay [3].
With `O=C(Nc1ccc2oc(-c3ccc(Cl)c(Br)c3)nc2c1)c1ccc(Cl)c(F)c1`, the IC50 in the assay with A549 amounted to 46.8 µM; with HUVEC, 69.3 µM; in the assay on HepG2, 52.7 µM; in the assay with MDA-MB-231, 87.8 µM. Also, the inhibition in assay [1] came out at 14.6%; in assay [3] it was 40.2%.
